Conditions in all cases: at 100 nM
Assay [1] relates to T1, Receptor-type tyrosine-protein kinase FLT3 (Homo sapiens), P36888 [D835H].
T1 sequence (whole entry): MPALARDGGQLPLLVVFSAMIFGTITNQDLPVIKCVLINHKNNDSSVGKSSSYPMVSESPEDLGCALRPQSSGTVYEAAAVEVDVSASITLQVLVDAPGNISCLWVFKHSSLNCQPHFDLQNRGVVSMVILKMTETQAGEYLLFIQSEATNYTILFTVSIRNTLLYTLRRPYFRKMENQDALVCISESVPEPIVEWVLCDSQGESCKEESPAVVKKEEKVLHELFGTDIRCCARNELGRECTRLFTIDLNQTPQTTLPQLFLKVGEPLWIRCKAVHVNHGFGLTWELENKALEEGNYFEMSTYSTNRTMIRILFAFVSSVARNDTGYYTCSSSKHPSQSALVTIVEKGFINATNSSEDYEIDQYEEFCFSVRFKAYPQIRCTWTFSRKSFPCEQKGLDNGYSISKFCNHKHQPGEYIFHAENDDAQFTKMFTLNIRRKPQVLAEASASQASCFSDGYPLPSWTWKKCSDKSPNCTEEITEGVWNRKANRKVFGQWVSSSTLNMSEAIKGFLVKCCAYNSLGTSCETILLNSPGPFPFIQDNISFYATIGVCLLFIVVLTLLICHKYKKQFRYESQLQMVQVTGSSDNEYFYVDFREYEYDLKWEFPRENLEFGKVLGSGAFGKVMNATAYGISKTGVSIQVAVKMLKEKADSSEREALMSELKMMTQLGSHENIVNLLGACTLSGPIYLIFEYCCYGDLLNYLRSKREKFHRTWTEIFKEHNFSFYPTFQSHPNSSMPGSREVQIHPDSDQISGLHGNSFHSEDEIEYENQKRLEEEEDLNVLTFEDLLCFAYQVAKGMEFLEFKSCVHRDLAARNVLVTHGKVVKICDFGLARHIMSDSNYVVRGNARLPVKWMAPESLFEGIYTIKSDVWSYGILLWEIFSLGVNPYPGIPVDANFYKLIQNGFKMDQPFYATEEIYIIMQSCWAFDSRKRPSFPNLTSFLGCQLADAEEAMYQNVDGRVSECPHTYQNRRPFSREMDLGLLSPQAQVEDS
Briefly: (§1) Selectivity interaction (KinomeScan (DiscoverX)) EUB0000695a FLT3.

The subject of assay [2] is T2, Receptor-type tyrosine-protein kinase FLT3 (Homo sapiens), P36888 [D835Y].
T2 sequence (whole entry): T1 sequence (whole entry) with H835Y
The assay is described as §1.

Assay [3] relates to T3, Receptor-type tyrosine-protein kinase FLT3 (Homo sapiens), P36888 [N841I].
T3 sequence (whole entry): T1 sequence (whole entry) with H835D, N841I
The assay is described as §1.

Assay [4] deals with Receptor-type tyrosine-protein kinase FLT3 (Homo sapiens), P36888 [UNDEFINED MUTATION]. The assay is described as §1.

Changes are numbered by the printed parent chain.

Consider `Cc1cc(F)c(C(=O)Nc2cccc(-c3nncn3C(C)C)n2)cc1-n1cnc(C2CC2)c1`, for which the % of control in assay [1] worked out at 100%; in assay [2] it was 100%; in assay [3], 93%; in assay [4] it was 100%.

Values taken from ChEMBL document CHEMBL5465560, “Selectivity Literature for EUbOPEN Chemogenomic Library” (2024).
